Reference: US8114381B2, “Radiolabeled compounds and compositions, their precursors and methods for their production” (The University of British Columbia, priority 2004, dated 2012)

Columns and labels:
Format in all cases: physicochemical
[1] = 19F NMR stability of B-F bond with 20 mM boric acid chase or in presence of boric acid; details: 20 mM boric acid chase (chase at 1 h, NMR at 2 h) or fluorination in presence of 20 mM boric acid
Method: Fluorination after a 20 mM boric acid chase (chase at 1 h, NMR taken at 2 h): ^19F NMR (300 MHz, D2O, TFA ref) δ −50.23 (fluorine-boric acid species #1), δ−53.89 (KHF2), δ −62.3 (fluorine-boric acid species #2), δ −66.30 (s, φBF3). Fluorination in the presence of boric acid: ^19F NMR (300 MHz, D2O, TFA ref) δ −50.02 (fluorine-boric acid species #1), δ −52.47 (KHF2), δ −62.0 (fluorine-boric acid species #2), δ −65.65 (s, φBF3).

[2] = Spectroscopic study of protecting group hydrolysis rate; details: 200 mM Acetic acid at pH 3.5, 2 mM boron compound, 20 mM KHF2
Method: Prior to ^18F-labeling of the final DNA compound or other boron-based fluoride acceptors, dilute labeling conditions were developed for 4-(4,4,5,5-Tetramethyl-1,3,2-dioxaborolan-2-yl) aniline with cold ^19F and the expectation that these labeling conditions can be extrapolated onto ^18F studies. The general conditions established are as follows: 200 mM Acetic acid at pH 3.5, with 2 mM boron compound, and 20 mM KHF2.

[3] = Kinetics of fluorination of boron compound with KHF2; details: 100 mM Acetic acid at pH 3.5
Source text: Prior to ^18F-labeling of the final DNA compound or other boron-based fluoride acceptors, dilute labeling conditions were developed for 4-(4,4,5,5-Tetramethyl-1,3,2-dioxaborolan-2-yl) aniline with cold ^19F and the expectation that these labeling conditions can be extrapolated onto ^18F studies. […]

stability of B—F bond (persistence of 19F NMR peak near δ −66) [1] | Compound | protecting group hydrolysis rate [2] | rate of fluorination [3]
stable | [NH3+]c1ccc([B-](F)(F)F)cc1 [φBF3, 4-Ammoniumphenyl Trifluoroborate] |  | 
 | CC1(C)OB(c2ccc(N)cc2)OC1(C)C [4-(4,4,5,5-Tetramethyl-1,3,2-dioxaborolan-2-yl) aniline] | 0.66 ± 0.04 min⁻¹ | 2.8 ± 0.3 min⁻¹
